According to ChEMBL document CHEMBL1140184, “Synthesis and structure-activity relationship studies of highly potent novel oxazolidinone antibacterials” (2008):
In brackets after ≈: the same amount, converted by molar mass.

Tests used:
Format in all cases: functional
Streptococcus pneumoniae [1] = test: Antibacterial activity against penicillin-resistant Streptococcus pneumoniae PR44 by agar dilution method
Staphylococcus aureus [2] = test: Antibacterial activity against methicillin-resistant Staphylococcus aureus TK7 by agar dilution method
Staphylococcus aureus [3] = test: Antibacterial activity against methicillin-sensitive Staphylococcus aureus Smith by agar dilution method
Haemophilus influenzae = test: Antibacterial activity against Haemophilus influenzae IID983 by agar dilution method
Enterococcus faecium = test: Antibacterial activity against vancomycin-resistant Enterococcus faecium A2280 by agar dilution method
Streptococcus pneumoniae [4] = test: Antibacterial activity against penicillin-susceptible Streptococcus pneumoniae IID553 by agar dilution method

Row | SMILES | MIC (Streptococcus pneumoniae [1]) | MIC (Staphylococcus aureus [2]) | MIC (Staphylococcus aureus [3]) | MIC (Haemophilus influenzae) | MIC (Enterococcus faecium) | MIC (Streptococcus pneumoniae [4])
1 | N#Cc1ccc(N2C[C@@H]3[C@H](C2)[C@@]3(C#N)c2ccc(-c3ccc(N4C[C@H](Cn5ccnn5)OC4=O)cc3F)cn2)nc1 | 0.06 µg/mL (≈ 0.11 µM) | 0.06 µg/mL (≈ 0.11 µM) | 0.06 µg/mL (≈ 0.11 µM) | > 2 µg/mL | 0.125 µg/mL (≈ 0.228 µM) | 0.125 µg/mL (≈ 0.228 µM)
2 | N[C@]1(c2ccc(-c3ccc(N4C[C@H](Cn5ccnn5)OC4=O)cc3F)cn2)[C@@H]2CNC[C@@H]21 | 0.5 µg/mL (≈ 1.15 µM) | 2 µg/mL (≈ 4.59 µM) | 1 µg/mL (≈ 2.3 µM) | 32 µg/mL (≈ 73.5 µM) | 2 µg/mL (≈ 4.59 µM) | 0.5 µg/mL (≈ 1.15 µM)
3 | CC(=O)NC[C@H]1CN(c2ccc(-c3ccc([C@@]4(C#N)[C@@H]5CNC[C@@H]54)nc3)c(F)c2)C(=O)O1 | 0.06 µg/mL (≈ 0.138 µM) | 0.125 µg/mL (≈ 0.287 µM) | 0.125 µg/mL (≈ 0.287 µM) | 4 µg/mL (≈ 9.19 µM) | 0.25 µg/mL (≈ 0.574 µM) | 0.125 µg/mL (≈ 0.287 µM)
4 | COC(=S)NC[C@H]1CN(c2ccc(-c3ccc([C@@]4(C#N)[C@@H]5CNC[C@@H]54)nc3)c(F)c2)C(=O)O1 | 0.03 µg/mL (≈ 0.0642 µM) | 0.03 µg/mL (≈ 0.0642 µM) | 0.03 µg/mL (≈ 0.0642 µM) | 0.5 µg/mL (≈ 1.07 µM) | 0.06 µg/mL (≈ 0.128 µM) | 0.03 µg/mL (≈ 0.0642 µM)
5 | N#C[C@]1(c2ccc(-c3ccc(N4C[C@H](CNc5ccon5)OC4=O)cc3F)cn2)[C@@H]2CNC[C@@H]21 | 0.25 µg/mL (≈ 0.543 µM) | 0.125 µg/mL (≈ 0.271 µM) | 0.125 µg/mL (≈ 0.271 µM) | > 16 µg/mL | 0.5 µg/mL (≈ 1.09 µM) | 0.25 µg/mL (≈ 0.543 µM)
6 | N#C[C@]1(c2ccc(-c3ccc(N4C[C@H](CNC(=O)C5CC5)OC4=O)cc3F)cn2)[C@@H]2CNC[C@@H]21 | 0.25 µg/mL (≈ 0.542 µM) | 0.25 µg/mL (≈ 0.542 µM) | 0.5 µg/mL (≈ 1.08 µM) | 8 µg/mL (≈ 17.3 µM) | 0.5 µg/mL (≈ 1.08 µM) | 0.25 µg/mL (≈ 0.542 µM)
7 | NC(=O)[C@]1(c2ccc(-c3ccc(N4C[C@H](Cn5ccnn5)OC4=O)cc3F)cn2)[C@@H]2CNC[C@@H]21 | 0.5 µg/mL (≈ 1.08 µM) | 2 µg/mL (≈ 4.32 µM) | 2 µg/mL (≈ 4.32 µM) | – | 4 µg/mL (≈ 8.63 µM) | 1 µg/mL (≈ 2.16 µM)
8 | CCC(=O)NC[C@H]1CN(c2ccc(-c3ccc([C@@]4(C#N)[C@@H]5CNC[C@@H]54)nc3)c(F)c2)C(=O)O1 | 0.125 µg/mL (≈ 0.278 µM) | 0.25 µg/mL (≈ 0.556 µM) | 0.25 µg/mL (≈ 0.556 µM) | 8 µg/mL (≈ 17.8 µM) | 0.25 µg/mL (≈ 0.556 µM) | 0.25 µg/mL (≈ 0.556 µM)
9 | N#C[C@]1(c2ccc(-c3ccc(N4C[C@H](CNC(=O)C(F)F)OC4=O)cc3F)cn2)[C@@H]2CNC[C@@H]21 | 0.06 µg/mL (≈ 0.127 µM) | 0.125 µg/mL (≈ 0.265 µM) | 0.125 µg/mL (≈ 0.265 µM) | 2 µg/mL (≈ 4.24 µM) | 0.25 µg/mL (≈ 0.53 µM) | 0.06 µg/mL (≈ 0.127 µM)
10 | N#C[C@]1(c2ccc(-c3ccc(N4C[C@H](Cn5ccnn5)OC4=O)cc3F)cn2)[C@@H]2CS(=O)(=O)C[C@@H]21 | 0.06 µg/mL (≈ 0.121 µM) | 0.125 µg/mL (≈ 0.253 µM) | 0.06 µg/mL (≈ 0.121 µM) | 4 µg/mL (≈ 8.09 µM) | 0.06 µg/mL (≈ 0.121 µM) | 0.125 µg/mL (≈ 0.253 µM)
11 | N#C[C@]1(c2ccc(-c3ccc(N4C[C@H](Cn5ccnn5)OC4=O)cc3)cn2)[C@@H]2CNC[C@@H]21 | 0.125 µg/mL (≈ 0.292 µM) | 0.125 µg/mL (≈ 0.292 µM) | 0.125 µg/mL (≈ 0.292 µM) | 2 µg/mL (≈ 4.68 µM) | 0.25 µg/mL (≈ 0.585 µM) | 0.125 µg/mL (≈ 0.292 µM)
12 | N#C[C@]1(c2ccc(-c3ccc(N4C[C@H](Cn5ccnn5)OC4=O)cc3F)cn2)[C@@H]2CNC[C@@H]21 | 0.06 µg/mL (≈ 0.135 µM) | 0.06 µg/mL (≈ 0.135 µM) | 0.06 µg/mL (≈ 0.135 µM) | 2 µg/mL (≈ 4.49 µM) | 0.125 µg/mL (≈ 0.281 µM) | 0.06 µg/mL (≈ 0.135 µM)
13 | N#C[C@]1(c2ccc(-c3c(F)cc(N4C[C@H](Cn5ccnn5)OC4=O)cc3F)cn2)[C@@H]2C[S+]([O-])C[C@@H]21 (stereo partly specified) | 0.125 µg/mL (≈ 0.252 µM) | 0.06 µg/mL (≈ 0.121 µM) | 0.06 µg/mL (≈ 0.121 µM) | 8 µg/mL (≈ 16.1 µM) | 0.125 µg/mL (≈ 0.252 µM) | 0.125 µg/mL (≈ 0.252 µM)
14 | N#C[C@]1(c2ccc(-c3ccc(N4C[C@H](Cn5ccnn5)OC4=O)cc3F)cc2F)[C@@H]2CNC[C@@H]21 | 0.25 µg/mL (≈ 0.541 µM) | 0.125 µg/mL (≈ 0.27 µM) | 0.25 µg/mL (≈ 0.541 µM) | 16 µg/mL (≈ 34.6 µM) | 0.25 µg/mL (≈ 0.541 µM) | 0.25 µg/mL (≈ 0.541 µM)
15 | N#C[C@]1(c2c(F)cc(-c3ccc(N4C[C@H](Cn5ccnn5)OC4=O)cc3F)cc2F)[C@@H]2CNC[C@@H]21 | 1 µg/mL (≈ 2.08 µM) | 0.5 µg/mL (≈ 1.04 µM) | 0.5 µg/mL (≈ 1.04 µM) | > 128 µg/mL | 0.25 µg/mL (≈ 0.52 µM) | 1 µg/mL (≈ 2.08 µM)
16 | N#C[C@]1(c2ccc(-c3c(F)cc(N4C[C@H](Cn5ccnn5)OC4=O)cc3F)cn2)[C@@H]2CS(=O)(=O)C[C@@H]21 | 0.06 µg/mL (≈ 0.117 µM) | 0.06 µg/mL (≈ 0.117 µM) | 0.06 µg/mL (≈ 0.117 µM) | 4 µg/mL (≈ 7.8 µM) | 0.125 µg/mL (≈ 0.244 µM) | 0.06 µg/mL (≈ 0.117 µM)
17 | N#C[C@]1(c2ccc(-c3c(F)cc(N4C[C@H](Cn5ccnn5)OC4=O)cc3F)cn2)[C@@H]2CSC[C@@H]21 | 0.25 µg/mL (≈ 0.52 µM) | 0.06 µg/mL (≈ 0.125 µM) | 0.06 µg/mL (≈ 0.125 µM) | > 16 µg/mL | 0.5 µg/mL (≈ 1.04 µM) | 0.25 µg/mL (≈ 0.52 µM)
